These are literature values, as cited in patent US20100056493A1, “MODIFIED RELEASE PHARMACEUTICAL COMPOSITION AND A PROCESS OF MAKING THE SAME” (priority 2007, published 2010).

Structures are written as SMILES.

Data set [1] relates to de novo kidney allograft recipients. The conditions noted are these: P=NS.
The conditions of data set [2]: given in brackets after the drug name; no method stated.
The mark [3] stands for this setting: 720 mg mycophenolic acid as mycophenolate sodium twice daily or 1000 mg MMF twice daily.

Take `COc1c(C)c2c(c(O)c1C/C=C(\C)CCC(=O)OCCN1CCOCC1)C(=O)OC2` [MMF, mycophenolate mofetil]: in data set [1] (setting [3]), the “frequency of dosage reductions, discontinuation, or temporary interruptions of therapy secondary to GI toxicities” value is reported as 17.6% and the “incidence of GI adverse events” value was 78.1%. Also, the “overall incidence of efficacy failure (biopsy-proven acute rejection, graft loss, death, or loss to follow-up)” value in data set [1] (at 6 months, 720 mg mycophenolic acid as mycophenolate sodium twice daily (n=213) or 1000 mg MMF twice daily (n=210)) is 28.1%. In addition, the BPAR rates in data set [1] (at 12 months, 720 mg mycophenolic acid as mycophenolate sodium twice daily or 1000 mg MMF twice daily) was 24.3%. Besides, in data set [2], the pH is recorded as 7.2.
With `O=C(O)/C=C/C(=O)O.OCCOCCN1CCN(C2=Nc3ccccc3Sc3ccccc32)CC1` [Quetiapine fumarate, 2-[2-(4-dibenzo[b,f][1,4]thiazepin-11-yl-1-piperazinyl)ethoxy]-ethanol fumarate], the pH in data set [2] is reported as 5.4.
On to `COc1c(C)c2c(c(O)c1C/C=C(\C)CCC(=O)O)C(=O)OC2` [mycophenolate sodium], for which, in data set [1] (setting [3]), the “frequency of dosage reductions, discontinuation, or temporary interruptions of therapy secondary to GI toxicities” value is recorded as 13.1% and the “incidence of GI adverse events” value is listed as 78.4%.
